{"source": "ChEMBL document CHEMBL4814003", "about": "“Novel dual-mode antitumor chlorin-based derivatives as potent photosensitizers and histone deacetylase inhibitors for photodynamic therapy and chemotherapy” (Eur J Med Chem, 2021)", "key": {"A549 [1]": {"system": "A549", "experiment": "Induction of apoptosis in human A549 cells assessed as apoptotic cells at 0.1 uM in presence of light irradiation incubated for 48 hrs by annexin V-FITC staining based flow cytometry", "assay_type": "functional"}, "[2]": {"experiment": "Drug uptake in human A549 cells assessed as compound localization in lysosome at 0.1 uM measured after 24 hrs by Lysotracker Green DND-26 dye based laser confocal microscopy", "assay_type": "ADME, subcellular", "settings": "a549, 24 h"}, "[3]": {"experiment": "Drug uptake in human A549 cells assessed as compound localization in golgi at 0.1 uM measured after 24 hrs by Golgi tracker Green dye based laser confocal microscopy", "assay_type": "ADME, subcellular, Golgi body", "settings": "a549, 24 h"}, "A549 [4]": {"system": "A549", "experiment": "Dark toxicity in human A549 cells assessed as reduction in cell viability incubated under dark for 48 hrs measured after 48 hrs by CCK8 assay", "assay_type": "functional, cell-based", "settings": "A549, 48 h"}, "Histone deacetylase 1 [5]": {"target": "T1, Histone deacetylase 1 (Homo sapiens, UniProt Q13547)", "T1 sequence (Q13547 whole entry)": "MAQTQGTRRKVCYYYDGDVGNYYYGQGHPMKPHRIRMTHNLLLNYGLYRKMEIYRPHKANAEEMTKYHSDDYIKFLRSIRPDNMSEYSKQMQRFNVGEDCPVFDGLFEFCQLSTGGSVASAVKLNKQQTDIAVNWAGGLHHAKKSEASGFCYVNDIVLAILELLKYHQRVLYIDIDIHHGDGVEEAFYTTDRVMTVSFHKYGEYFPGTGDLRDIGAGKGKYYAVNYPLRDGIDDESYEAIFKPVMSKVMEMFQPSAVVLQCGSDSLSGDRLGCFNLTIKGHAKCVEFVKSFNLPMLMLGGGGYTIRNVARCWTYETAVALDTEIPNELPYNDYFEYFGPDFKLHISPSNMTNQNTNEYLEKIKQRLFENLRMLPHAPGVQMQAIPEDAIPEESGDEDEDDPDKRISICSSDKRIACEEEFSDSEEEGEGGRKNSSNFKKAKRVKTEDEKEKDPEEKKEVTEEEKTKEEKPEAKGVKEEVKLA", "experiment": "Inhibition of human recombinant HDAC1 in human A 549 cells assessed as effect on acetyl-H3 expression upto 2 uM measured after 24 hrs by western blot analysis", "assay_type": "cell-based", "settings": "A549, dose microM <=2, time 24.0 hrs"}, "A549 [6]": {"system": "A549", "experiment": "Induction of apoptosis in human A549 cells assessed as apoptotic cells at 0.5 uM in absence of light irradiation incubated for 48 hrs by annexin V-FITC staining based flow cytometry", "assay_type": "functional"}, "[7]": {"experiment": "Drug uptake in human A549 cells after 24 hrs by fluorescence spectrophotometer analysis relative to tala-porfin", "assay_type": "ADME, cell-based", "settings": "a549, 24 h"}, "[8]": {"target": "T2, Protein deacetylase HDAC6 (Homo sapiens, UniProt Q9UBN7)", "T2 sequence (Q9UBN7 whole entry)": "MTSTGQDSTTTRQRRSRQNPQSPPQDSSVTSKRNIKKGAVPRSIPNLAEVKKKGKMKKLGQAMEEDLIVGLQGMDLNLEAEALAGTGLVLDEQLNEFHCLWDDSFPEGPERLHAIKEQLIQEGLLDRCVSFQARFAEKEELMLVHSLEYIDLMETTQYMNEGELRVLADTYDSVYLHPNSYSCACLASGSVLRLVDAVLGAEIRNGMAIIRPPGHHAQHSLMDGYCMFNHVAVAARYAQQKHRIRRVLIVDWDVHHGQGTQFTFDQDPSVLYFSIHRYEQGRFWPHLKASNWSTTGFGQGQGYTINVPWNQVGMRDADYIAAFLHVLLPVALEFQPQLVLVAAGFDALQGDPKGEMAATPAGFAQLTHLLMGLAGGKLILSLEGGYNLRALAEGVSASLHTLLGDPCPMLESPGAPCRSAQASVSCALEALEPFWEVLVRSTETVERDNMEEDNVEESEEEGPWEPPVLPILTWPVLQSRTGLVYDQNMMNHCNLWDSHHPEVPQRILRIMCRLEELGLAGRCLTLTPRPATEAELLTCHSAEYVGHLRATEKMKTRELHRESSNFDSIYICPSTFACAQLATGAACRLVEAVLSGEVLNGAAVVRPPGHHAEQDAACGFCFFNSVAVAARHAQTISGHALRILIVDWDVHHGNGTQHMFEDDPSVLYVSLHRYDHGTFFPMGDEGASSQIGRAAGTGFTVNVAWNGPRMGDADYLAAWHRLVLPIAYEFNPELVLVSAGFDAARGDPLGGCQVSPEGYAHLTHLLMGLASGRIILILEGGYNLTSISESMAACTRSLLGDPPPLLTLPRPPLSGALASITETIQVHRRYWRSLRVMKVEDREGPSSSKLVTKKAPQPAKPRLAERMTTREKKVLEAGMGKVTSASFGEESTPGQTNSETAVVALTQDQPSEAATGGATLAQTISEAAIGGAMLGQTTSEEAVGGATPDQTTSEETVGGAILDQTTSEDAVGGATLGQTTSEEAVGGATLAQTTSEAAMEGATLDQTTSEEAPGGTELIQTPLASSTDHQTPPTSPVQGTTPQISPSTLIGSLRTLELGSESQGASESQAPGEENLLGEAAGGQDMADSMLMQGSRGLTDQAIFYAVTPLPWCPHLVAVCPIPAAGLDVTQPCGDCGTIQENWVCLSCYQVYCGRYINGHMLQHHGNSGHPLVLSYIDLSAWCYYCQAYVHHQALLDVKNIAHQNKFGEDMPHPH", "experiment": "Inhibition of human recombinant HDAC6 using Ac-Leu-Gly-Lys(Ac)-AMC as substrate by measuring fluorescence intensity incubated for 30 mins by microplate reader assay"}, "[9]": {"experiment": "Drug uptake in human A549 cells assessed as compound localization in mitochondria at 0.1 uM measured after 24 hrs by Mitotracker Green FM based laser confocal microscopy", "assay_type": "ADME", "settings": "a549, 24 h"}, "A549 [10]": {"system": "A549", "experiment": "Induction of apoptosis in human A549 cells assessed as necrotic cells at 0.5 uM in absence of light irradiation incubated for 48 hrs by annexin V-FITC staining based flow cytometry", "assay_type": "functional"}, "Histone deacetylase 3": {"target": "Histone deacetylase 3 (Homo sapiens, UniProt O15379)", "sequence (O15379 whole entry)": "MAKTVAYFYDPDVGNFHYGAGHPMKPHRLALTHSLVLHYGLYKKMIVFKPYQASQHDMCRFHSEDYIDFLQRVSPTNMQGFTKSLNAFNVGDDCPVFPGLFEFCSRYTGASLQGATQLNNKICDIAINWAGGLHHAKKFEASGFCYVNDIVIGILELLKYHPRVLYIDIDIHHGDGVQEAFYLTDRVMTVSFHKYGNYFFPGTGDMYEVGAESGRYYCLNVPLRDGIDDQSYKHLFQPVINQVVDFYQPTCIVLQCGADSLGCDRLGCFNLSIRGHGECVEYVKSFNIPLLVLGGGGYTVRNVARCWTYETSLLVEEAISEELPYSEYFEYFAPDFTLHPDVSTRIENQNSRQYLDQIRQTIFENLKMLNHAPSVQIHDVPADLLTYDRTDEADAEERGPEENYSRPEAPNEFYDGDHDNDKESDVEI", "experiment": "Inhibition of human recombinant HDAC3 using Ac-Leu-Gly-Lys(Ac)-AMC as substrate by measuring fluorescence intensity incubated for 30 mins by microplate reader assay"}, "[11]": {"experiment": "Drug uptake in human A549 cells assessed as compound localization in ER at 0.1 uM measured after 24 hrs by ERtracker Green dye based laser confocal microscopy", "assay_type": "ADME, subcellular, Endoplasmic reticulum", "settings": "a549, 24 h"}, "[12]": {"target": "T3, Polyamine deacetylase HDAC10 (Homo sapiens, UniProt Q969S8)", "T3 sequence (Q969S8 whole entry)": "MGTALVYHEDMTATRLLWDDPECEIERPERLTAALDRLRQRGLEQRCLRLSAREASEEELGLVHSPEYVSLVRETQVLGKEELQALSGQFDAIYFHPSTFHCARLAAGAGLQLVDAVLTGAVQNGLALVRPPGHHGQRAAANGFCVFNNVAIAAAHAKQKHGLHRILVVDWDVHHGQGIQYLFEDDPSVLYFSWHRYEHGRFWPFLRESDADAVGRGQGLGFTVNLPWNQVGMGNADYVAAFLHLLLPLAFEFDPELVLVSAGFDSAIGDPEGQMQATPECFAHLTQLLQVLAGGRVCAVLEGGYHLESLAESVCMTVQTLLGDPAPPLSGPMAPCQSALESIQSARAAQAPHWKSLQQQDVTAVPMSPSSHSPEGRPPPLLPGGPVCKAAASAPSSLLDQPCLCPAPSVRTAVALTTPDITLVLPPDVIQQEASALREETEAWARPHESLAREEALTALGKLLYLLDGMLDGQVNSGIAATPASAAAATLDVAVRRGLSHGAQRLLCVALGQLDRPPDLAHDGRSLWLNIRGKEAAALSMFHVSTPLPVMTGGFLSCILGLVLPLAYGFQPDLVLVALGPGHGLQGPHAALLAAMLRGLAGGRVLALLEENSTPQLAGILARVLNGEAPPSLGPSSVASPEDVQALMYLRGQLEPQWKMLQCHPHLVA", "experiment": "Inhibition of human recombinant HDAC10 using Ac-Leu-Gly-Lys(Ac)-AMC as substrate by measuring fluorescence intensity incubated for 30 mins by microplate reader assay"}, "A549 [13]": {"system": "A549", "experiment": "Induction of reactive oxygen species generation in human A549 cells assessed as mean count value at 0.05 uM incubated for 24 hrs by DCFH-DA staining based fluorescence microscopy assay", "assay_type": "functional"}, "Histone deacetylase 1 [14]": {"target": "T1, Histone deacetylase 1", "experiment": "Inhibition of human recombinant HDAC1 in human A 549 cells assessed as effect on acetyl-H4 expression measured after 24 hrs by western blot analysis", "assay_type": "cell-based", "settings": "A549, dose microM <=2, time 24.0 hrs"}}, "note": "The source made the active and inactive calls. The calls are words filed in the database; no cut-off is given here.", "data": [{"smiles": "C=Cc1c(C)c2cc3nc(c(C(=O)OC)c4[nH]c(cc5nc(cc1[nH]2)C(C)=C5CC)c(C)c4C(=O)OC)[C@@H](CCC(=O)Nc1ccc(C(=O)Nc2ccccc2N)cc1)[C@@H]3C", "values": [{"measurement": "Activity", "setting": "A549 [1]", "result": 90.77, "unit": "%"}, {"measurement": "Drug uptake", "setting": "[2]", "result": "Active"}, {"measurement": "Drug uptake", "setting": "[3]", "result": "Active"}, {"measurement": "IC50", "setting": "A549 [4]", "result": 300, "unit": "nM"}, {"measurement": "inhibition", "setting": "Histone deacetylase 1 [5]", "result": "inactive"}, {"measurement": "Activity", "setting": "A549 [6]", "result": 54.74, "unit": "%"}, {"measurement": "fold change (FC)", "setting": "[7]", "result": 9}, {"measurement": "IC50", "setting": "[8]", "result": "> 100", "unit": "µM"}, {"measurement": "Drug uptake", "setting": "[9]", "result": "Active"}, {"measurement": "Activity", "setting": "A549 [10]", "result": 45.22, "unit": "%"}, {"measurement": "IC50", "setting": "Histone deacetylase 3", "result": 72.1, "unit": "µM"}, {"measurement": "Drug uptake", "setting": "[11]", "result": "Active"}, {"measurement": "IC50", "setting": "[12]", "result": "> 100", "unit": "µM"}, {"measurement": "Activity", "setting": "A549 [13]", "result": 1760.9}, {"measurement": "inhibition", "setting": "Histone deacetylase 1 [14]", "result": "Dose-Dependent Effect"}]}]}
